Test results as given in patent US5328840A, “Method for preparing targeted carrier erythrocytes” (The Research Foundation of the State University of New York, priority 1991, dated 1994).
“Also recorded” adds a separate entry of the source. Read-outs that look alike come from different tables or passages of the source. Where a SMILES comes first, the peptide text is derived from it.

Legend:
[1] = tested on: activated platelets; assay: Platelet-thrombo-erythrocyte co-aggregation assay (microtiter); format: cell-based
Experimental: To assess the ability of thrombo-erythrocytes to enter into developing platelet aggregates, a microtiter assay was developed. Platelet-rich plasma (PRP) was prepared from blood anticoagulated with 0.01 volume 40% sodium citrate and adjusted to a platelet count of 3.5×10^8 /ml with platelet-poor plasma. Aliquots (50 or 100 μl) of the PRP were added to microtiter wells and then 5 or 10 μl of ADP (100 μM stock solution) was added to selected wells, followed by the addition of 5 or 10 μl of thrombo-erythrocytes (10% hematocrit in buffer A). The microtiter plate was then rotated at 270 rpm at 22° C. for variable periods of time between 0.5 and 20 min and the extent of platelet-thrombo-erythrocytecoaggregation was assessed visually on a scale from 0-4+ with the aid of a magnifying mirror. To assess the specificity of the reaction, in some experiments the PRP was preincubated with 10 mM EDTA, 300 μg/ml of the peptide RGDF, or 20 μg/ml of an antibody directed against both the GPIIb/IIIa receptor and the αv β3 vitronectin receptor that blocks fibrinogen binding to activated platelets (7E3) (Coller, 1985, J. Clin. Invest. 76:101-108; Coller et al., 1991, Blood 77:75-83). Blood smears were made from the samples in some experiments and stained with a standard Wright stain (Hemastain, Geometric Data, Wayne, Pa.).

[2] = tested on: platelets; assay: Agglutination assay with peptide-coated beads; format: cell-based
Experimental: Biol. 109:863) was a gift of Dr. Kenneth Yamada, National Institutes of Health, Bethesda, Md. The platelets were incubated with the antibody concentrations indicated for 30-60 min before the addition of the beads. In the case of PAC-1, which binds only to activated platelets (Shattil et al. 1985, J. Biol. Chem. 260:1107), the platelets were activated with ADP (6.7 μM final concentration) without stirring for 5 min before adding the antibody.
To 70 μl of PRP or GFP at a count of 3×10^11 platelets/l in a 96 well round bottom polystyrene microtiter plate, 5 μl of a well mixed bead suspension (0.22 mg beads) was added and the plate was rotated at 260 rpm (Orbit shaker, Lab Line Instruments, Melrose Park, Ill.) for various times between 0 and 30 min (0.5, 1, 2, 4, 6, 8, 10, 12, 15, 20, 25, 30 min). […] Platelet counts in the supernatant plasma or buffer were measured by removing 5 μl from the supernatant after allowing the bead agglutinates to settle for 3 min. […] In some experiments, platelets were activated with 6.7 μM ADP 30 sec prior to the addition of the beads; in other experiments the platelets were preincubated with 0.14 μM PGE1 (Sigma, St. Louis) for 30 min.

[3] = Solubility of (G)n-RGDF peptides in buffers
[4] = for solubility in 0.1% trifluoroacetic acid: pH 2.5; for solubility in the acetate buffer: pH 6.5
[5] = tested on: platelets; assay: Release of 14C-serotonin from platelets; format: cell-based; conditions: acetylsalicylic acid 50 μM; PGE1 0.14 μM; 8 min
Experimental: Citrated PRP (3×10^11 /l) was incubated with ^14 C-5-serotonin (10 μCi/ml stock solution, 20-25 nCi/ml final concentration, New England Nuclear, Boston, Mass.) for 30 min at 22° C. with gentle stirring (~100 rpm) using a teflon coated stir bar. In order to maintain the PRP pH constant at ~7.60, the PRP was overlayed with 5% CO2, 95% air just before the incubation began. Serotonin uptake was terminated by adding 5 μM imipramine (Sigma) and stirring was continued for another 5 min. Total uptake under these conditions was 70-80% of the added serotonin. The agglutination assay was performed in quadruplicate in the same way as described above except that after 8 min of shaking, 70 μl of cold 2% paraformaldehyde in PBS, pH 7.4 was added to the wells and the microtiter plate was centrifuged at 1000×g for 5 min at 22° C. The top 50 μl of the supernatant (total volume in each well was 145 μl) was added to scintillation fluid and counted in a scintillation spectrometer. In some experiments the PRP was preincubated with acetylsalicylic acid (50 μM) or PGE1 (0.14 μM) during the serotonin uptake.

[6] = molecular target: T1, 7E3 binding to platelets (Homo sapiens, UniProt P05106+P08514); assay: Effect of RGD peptides on initial rate of 125I-7E3 binding to platelets
T1 construct: endogenous in cells; host or cells: platelets in citrated platelet-rich plasma (PRP)
Experimental: (§1) To assess the effect of RGD-containing peptides on the initial rate of binding of 7E3 and 10E5, studies were conducted with ^125 I-7E3 and ^125 I-10E5 essentially as described before (Coller, B.S., 1985, J. Clin. Invest. 76:101). The RGDS or LGGAKQAGDV(R)8 RGDV peptide was incubated at 22° C. with citrated PRP (~3×10^8 /ml) for 1 to 5 min at various concentrations and then non-saturating concentrations of the antibodies (1.5-2.5 μg/ml) were added for 1 to 2 min. The bound antibody was separated from the free by centrifugation of the PRP through 20% sucrose and both the platelet pellet and the supernatant were counted. Results were expressed as either an increase or decrease in antibody binding as compared to a buffer control.

[7] = molecular target: T2, 10E5 binding to platelets (Homo sapiens, UniProt P05106+P08514); assay: Effect of RGD peptides on initial rate of 125I-10E5 binding to platelets; conditions: similar concentrations (up to 5 mM); one experiment
T2 construct: endogenous in cells; host or cells: platelets in citrated platelet-rich plasma (PRP)
Experimental: as §1

[8] = tested on: gel-filtered platelets; assay: Co-aggregation of thrombo-erythrocytes with gel-filtered platelets in the aggregometer; format: cell-based
Experimental: To obtain more quantitative data on the co-aggregation of thrombo-erythrocytes with platelets, the assay was adapted to the aggregometer. PRP was prepared from whole blood anticoagulated with ACD-A (8.5:1.5) and gel-filtered over a column of Sepharose 2B (Pharmacia) using a modified Tyrodes buffer (140 mM NaCl, 3 mM KCl, 12 mM NaHCO3, 0.4 mM NaH2 PO4, 10 mM HEPES, 2 mM MgCl2, 0.2% bovine serum albumin, 5 mM glucose, pH 7.4). Samples consisted of 450 μl of gel-filtered platelets+20 μl of thrombo-erythrocytes (10% hematocrit) or control erythrocytes (i.e., erythrocytes incubated with peptide but no crosslinker). Maximal transmission was set with 450 μl of buffer+20 μl of control erythrocytes. Platelets were activated with ADP (4.3 μM final concentration) or epinephrine (10 μM).

[9] = tested on: erythrocytes; assay: Assessment of hemolysis (leucomalachite green); conditions: mean SD; n=6
Experimental: Hemolysis of erythrocytes during thrombo-erythrocyte preparation was assayed by the reaction of any free hemoglobin with leucomalachite green (Kodak; 0.1% p,p'-benzylidenebis-(N,N-dimethylaniline) in 3.3 M acetic acid). The resulting compound was detected by absorbance at 617 nm, a wavelength that is not interfered with by the mal-sac-HNSA dianion. Standards were prepared by lysing known amounts of erythrocytes in deionized water. The assay consisted of 10 μl of sample (the supernatant of the reaction mixture after centrifuging to remove intact erythrocytes), 1 ml of leucomalachite green, and 1 ml of 0.1% […]. After 10 min the absorbance of each sample was read at 617 nm.

[10] = tested on: platelets adherent to collagen; assay: Binding of thrombo-erythrocytes to platelets adherent to collagen; format: cell-based; conditions: 1 hour, 22° C., 2 mM MgCl2
Experimental: The first stage of the assay, involving the adhesion of platelets to purified type 1 rat skin collagen, was performed as described previously, but without radiolabeling the platelets (Coller et al., 1989, Blood 74:182-192). In brief, a sample of gel-filtered platelets (100 μl; 5.5×10^8 /ml) in the presence of 2 mM MgCl2 was added to microtiter plate wells precoated with collagen and the platelets were allowed to adhere for 1 hour at 22° C. The wells were then emptied and washed×3 with buffer (0.15M NaCl, 0.01M Tris/HCl, 0.5% bovine serum albumin, 5 mM glucose, pH 7.4). Control erythrocytes or thrombo-erythrocytes (50 μl; 10% hematocrit) were then added to the wells in the same buffer, which was now supplemented with 2 mM MgCl2. After 60 min, the wells were emptied and washed×3 as above. The wells were then visually inspected at 400× magnification with the aid of a microscope with Nomarski optics. The effect of 20 μg/ml of an antibody to GPIIb/IIIa that blocks fibrinogen binding and platelet aggregation (10E5) (Coller et al., 1983, J. Clin. Invest. 72:325-338) and 400 μg/ml of the peptide RGDF on thrombo-erythrocyte adhesion to platelets was tested by adding these agents to the thrombo-erythrocytes immediately before the thrombo-erythrocytes were added to the microtiter wells.

T1 sequence (P08514 32-887 limits assumed): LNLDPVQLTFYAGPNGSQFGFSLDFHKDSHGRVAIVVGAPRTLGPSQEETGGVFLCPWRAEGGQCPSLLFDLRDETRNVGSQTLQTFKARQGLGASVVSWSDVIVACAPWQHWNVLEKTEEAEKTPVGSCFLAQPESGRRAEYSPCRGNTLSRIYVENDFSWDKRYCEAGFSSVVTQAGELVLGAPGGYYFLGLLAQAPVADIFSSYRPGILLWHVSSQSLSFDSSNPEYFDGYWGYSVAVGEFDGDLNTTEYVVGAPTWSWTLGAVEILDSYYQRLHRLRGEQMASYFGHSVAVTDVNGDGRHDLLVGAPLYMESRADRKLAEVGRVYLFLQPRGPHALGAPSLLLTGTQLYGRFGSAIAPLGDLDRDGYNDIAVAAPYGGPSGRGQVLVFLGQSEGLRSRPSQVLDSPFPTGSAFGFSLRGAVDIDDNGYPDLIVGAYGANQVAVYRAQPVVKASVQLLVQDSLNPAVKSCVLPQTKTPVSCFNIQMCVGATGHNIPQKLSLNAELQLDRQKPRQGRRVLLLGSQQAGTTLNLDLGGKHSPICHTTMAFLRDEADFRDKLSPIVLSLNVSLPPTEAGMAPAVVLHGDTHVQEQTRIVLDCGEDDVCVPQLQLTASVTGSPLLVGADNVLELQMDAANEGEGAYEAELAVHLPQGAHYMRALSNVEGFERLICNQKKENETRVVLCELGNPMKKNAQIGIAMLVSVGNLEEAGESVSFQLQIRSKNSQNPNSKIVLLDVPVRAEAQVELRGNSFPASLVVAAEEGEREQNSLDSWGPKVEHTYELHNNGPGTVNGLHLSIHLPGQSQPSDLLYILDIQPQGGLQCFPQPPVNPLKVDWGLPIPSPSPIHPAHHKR
T1 sequence (P08514 891-1039 partner limits assumed): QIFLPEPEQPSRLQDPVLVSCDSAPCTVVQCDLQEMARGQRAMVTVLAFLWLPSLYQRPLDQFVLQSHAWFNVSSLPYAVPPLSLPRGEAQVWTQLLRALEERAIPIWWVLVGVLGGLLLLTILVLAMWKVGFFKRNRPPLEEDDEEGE
T1 sequence (P05106 27-788): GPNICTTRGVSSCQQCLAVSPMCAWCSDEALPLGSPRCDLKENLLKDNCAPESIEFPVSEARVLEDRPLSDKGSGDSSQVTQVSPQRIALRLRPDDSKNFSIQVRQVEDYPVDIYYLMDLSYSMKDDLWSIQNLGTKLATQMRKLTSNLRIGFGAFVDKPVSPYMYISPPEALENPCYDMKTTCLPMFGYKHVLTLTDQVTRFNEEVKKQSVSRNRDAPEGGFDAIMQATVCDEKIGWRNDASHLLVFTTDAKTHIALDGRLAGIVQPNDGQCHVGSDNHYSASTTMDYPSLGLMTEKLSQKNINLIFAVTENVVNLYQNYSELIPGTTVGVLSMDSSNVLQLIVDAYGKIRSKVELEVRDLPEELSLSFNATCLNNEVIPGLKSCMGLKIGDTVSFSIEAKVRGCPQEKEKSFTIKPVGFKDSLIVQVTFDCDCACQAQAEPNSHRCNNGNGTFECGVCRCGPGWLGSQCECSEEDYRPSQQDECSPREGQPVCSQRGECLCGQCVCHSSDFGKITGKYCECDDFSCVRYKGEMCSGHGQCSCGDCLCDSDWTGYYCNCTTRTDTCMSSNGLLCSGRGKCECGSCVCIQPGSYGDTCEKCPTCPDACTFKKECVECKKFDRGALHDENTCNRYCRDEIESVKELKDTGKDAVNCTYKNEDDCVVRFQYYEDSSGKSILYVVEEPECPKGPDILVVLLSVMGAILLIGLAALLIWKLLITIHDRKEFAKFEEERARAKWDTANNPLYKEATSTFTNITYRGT
T2 sequence (P08514 32-887 limits assumed): as the sequence (P08514 32-887 limits assumed) above
T2 sequence (P08514 891-1039 partner limits assumed): as the sequence (P08514 891-1039 partner limits assumed) above
T2 sequence (P05106 27-788): as the sequence (P05106 27-788) above

Compound: O=C(O)CN(CCN(CC(=O)O)CC(=O)O)CC(=O)O [EDTA, reference compound]
- effect on platelet-thrombo-erythrocyte co-aggregation ([1]; ADP-activated PRP preincubated with 10 mM EDTA, 300 μg/ml RGDF or antibody 7E3): inhibited
- bead agglutination in the presence of the agent [2]: no agglutination at all

Compound: N=C(N)NCCC[C@H](NC(=O)CNC(=O)CNC(=O)CNC(=O)CNC(=O)CNC(=O)CNC(=O)CNC(=O)CNC(=O)CNC(=O)CNC(=O)CN)C(=O)NCC(=O)N[C@@H](CC(=O)O)C(=O)N[C@@H](Cc1ccccc1)C(N)=O [G11 -RGDF]
- solubility in the acetate buffer ([3]; 0.05M Na acetate buffer, pH 6.5): only partially soluble
- solubility in 0.1% trifluoroacetic acid ([3]; pH 2.5, 22° C. or 37° C.): fully soluble

Compound: N=C(N)NCCC[C@H](NC(=O)CNC(=O)CNC(=O)CNC(=O)CNC(=O)CNC(=O)CNC(=O)CNC(=O)CNC(=O)CNC(=O)CNC(=O)CNC(=O)CNC(=O)CN)C(=O)NCC(=O)N[C@@H](CC(=O)O)C(=O)N[C@@H](Cc1ccccc1)C(N)=O [G13 -RGDF]
- solubility in 0.1% trifluoroacetic acid [4]: fully soluble
- solubility in the acetate buffer [4]: only partially soluble

Compound: N=C(N)NCCC[C@H](NC(=O)CNC(=O)CNC(=O)CNC(=O)CNC(=O)CNC(=O)CNC(=O)CNC(=O)CNC(=O)CNC(=O)CNC(=O)CNC(=O)CNC(=O)CNC(=O)CNC(=O)CN)C(=O)NCC(=O)N[C@@H](CC(=O)O)C(=O)N[C@@H](Cc1ccccc1)C(N)=O [G15 -RGDF] (H-GGGGGGGGGGGGGGGRGDF-NH2)
- solubility in 0.1% trifluoroacetic acid [4]: fully soluble
- solubility in the acetate buffer [4]: only partially soluble

Compound: N=C(N)NCCC[C@H](NC(=O)CNC(=O)CNC(=O)CNC(=O)CNC(=O)CNC(=O)CNC(=O)CNC(=O)CNC(=O)CNC(=O)CNC(=O)CNC(=O)CNC(=O)CNC(=O)CNC(=O)CNC(=O)CNC(=O)CN)C(=O)NCC(=O)N[C@@H](CC(=O)O)C(=O)N[C@@H](Cc1ccccc1)C(N)=O [G17 -RGDF] (H-GGGGGGGGGGGGGGGGGRGDF-NH2)
- solubility in 0.1% trifluoroacetic acid [4]: fully soluble
- solubility in the acetate buffer [4]: only partially soluble

Compound: N=C(N)NCCC[C@H](NC(=O)CNC(=O)CNC(=O)CNC(=O)CNC(=O)CNC(=O)CNC(=O)CNC(=O)CNC(=O)CNC(=O)CNC(=O)CNC(=O)CNC(=O)CNC(=O)CNC(=O)CNC(=O)CNC(=O)CNC(=O)CNC(=O)CN)C(=O)NCC(=O)N[C@@H](CC(=O)O)C(=O)N[C@@H](Cc1ccccc1)C(N)=O [G19 -RGDF] (H-GGGGGGGGGGGGGGGGGGGRGDF-NH2)
- solubility in 0.1% trifluoroacetic acid [4]: fully soluble
- solubility in the acetate buffer [4]: only partially soluble

Compound: CCCCC[C@H](O)/C=C/[C@H]1[C@H](O)CC(=O)[C@@H]1CCCCCCC(=O)O [PGE1]
- effect of preincubation of platelets on serotonin release induced by (G)n -RGDF beads [5]: abolished release

Compound: CC(=O)Oc1ccccc1C(=O)O [acetylsalicylic acid]
- effect of preincubation of platelets on serotonin release induced by (G)n -RGDF beads [5]: did not change this pattern

Compound: PAC-1
- inhibition of agglutination of G1 -RGDF and G3 -RGDF beads [2]: effectively inhibited
- Inhibition of G9 -RGDF Bead Agglutination (%) +ADP ([2]; antibody 60 μg/ml, 30 min): 8%
- inhibition of the interaction of platelets in PRP with G1 -RGDF, G3 -RGDF, and G5 -RGDF beads ([2]; even with ADP activation): > 90%

Compound: RGDS
- increase in initial rate of 7E3 binding ([6]; peptide 2.5 mM, n=1): 63%
- increase in initial rate of 7E3 binding ([6]; peptide 5 mM, citrated PRP, n=2): 66%
- increase in initial rate of 7E3 binding ([6]; peptide 0.5-1 mM, n=4): 21%
- decrease in rate of 10E5 binding [7]: 5%

Compound: Y-HHLGGAKQAGDV (N-terminal added tyrosine) [Fibrinogen Dodecapeptide (+Tyr), fibrinogen γ-chain dodecapeptide (amino acids 400-411) with an added amino-terminal tyrosine]
- Inhibition of G9 -RGDF Bead Agglutination (%) ([2]; peptide 1.8 × 10^-3 M): 13%
- Inhibition of G9 -RGDF Bead Agglutination (%) ([2]; peptide 3.6 × 10^-3 M): 67%
- Inhibition of G9 -RGDF Bead Agglutination (%) ([2]; peptide ≤4.5 × 10^-4 M): 0%

Compound: thrombo-erythrocytes: erythrocytes covalently conjugated through Mal-Sac-HNSA to the peptide acetyl-Cys-Gly-Gly-Arg-Gly-Asp-Phe-amide (Ac-CGGRGDF-NH2) (also: conjugated to erythrocytes via Mal-Sac-HNSA)
- platelet-thrombo-erythrocyte co-aggregation ([1]; PRP with ADP, 120 min crosslinking, more than 20 experiments): positive response
- interaction with platelets ([1]; no agonist added): did not interact with platelets
- interaction with platelets (aggregometer) ([8]; ADP-activated gel-filtered platelets, 4.3 μM ADP): interact with ADP-activated platelets
- interaction with platelets (aggregometer) ([8]; unactivated gel-filtered platelets, stirring, 37° C.): did not interact with unactivated platelets
- erythrocyte hemolysis in supernatant fluid after the thrombo-erythrocyte reaction [9]: 0.40±0.09%
- binding to platelets adherent to collagen [10]: formed a dense lawn on top of the platelet lawn; also recorded: bound extensively to the adherent platelets
